Measured values published in the CheMixHub viscosity set.
± gives the uncertainty stated by the source.

Assay: xn = mol fraction of the nth substance listed
Details: 101.33 kPa

CCCCN(CCCC)CCCC + CC(C)O
viscosity [mPa·s]
Details	298.15 K	303.15 K	308.15 K	313.15 K	318.15 K	323.15 K
x1 = 0.0562	1.977 ± 0.12	–	1.524 ± 0.092	–	1.172 ± 0.071	–
x1 = 0.1016	–	1.679 ± 0.1	–	1.292 ± 0.078	–	1.009 ± 0.061
x1 = 0.1175	1.876 ± 0.11	–	1.46 ± 0.088	–	1.132 ± 0.068	–
x1 = 0.1477	–	1.619 ± 0.098	–	1.256 ± 0.076	–	0.988 ± 0.06
x1 = 0.1499	1.827 ± 0.11	–	1.429 ± 0.086	–	1.113 ± 0.067	–
x1 = 0.1897	1.772 ± 0.11	–	1.394 ± 0.084	–	1.092 ± 0.066	–
x1 = 0.1953	–	1.562 ± 0.094	–	1.223 ± 0.074	–	0.968 ± 0.059
x1 = 0.224	1.728 ± 0.1	–	1.367 ± 0.083	–	1.075 ± 0.065	–
x1 = 0.2585	–	1.496 ± 0.09	–	1.185 ± 0.072	–	0.945 ± 0.057
x1 = 0.2648	1.681 ± 0.1	–	1.338 ± 0.081	–	1.057 ± 0.064	–
x1 = 0.3035	1.641 ± 0.099	–	1.313 ± 0.079	–	1.041 ± 0.063	–
x1 = 0.3076	–	1.452 ± 0.088	–	1.16 ± 0.07	–	0.93 ± 0.056
x1 = 0.3493	1.6 ± 0.097	–	1.287 ± 0.078	–	1.024 ± 0.062	–
x1 = 0.3539	–	1.415 ± 0.086	–	1.139 ± 0.069	–	0.918 ± 0.055
x1 = 0.404	1.559 ± 0.094	–	1.26 ± 0.076	–	1.007 ± 0.061	–
x1 = 0.4061	–	1.379 ± 0.083	–	1.118 ± 0.068	–	0.906 ± 0.055
x1 = 0.4528	1.528 ± 0.092	1.351 ± 0.082	1.24 ± 0.075	1.101 ± 0.067	0.994 ± 0.06	0.898 ± 0.054
x1 = 0.4899	1.508 ± 0.091	–	1.226 ± 0.074	–	0.985 ± 0.06	–
x1 = 0.5047	–	1.324 ± 0.08	–	1.086 ± 0.066	–	0.889 ± 0.054
x1 = 0.5476	–	1.304 ± 0.079	–	1.073 ± 0.065	–	0.884 ± 0.053
x1 = 0.5541	1.479 ± 0.089	–	1.206 ± 0.073	–	0.972 ± 0.059	–
x1 = 0.604	1.46 ± 0.088	–	1.192 ± 0.072	–	0.962 ± 0.058	–
x1 = 0.611	–	1.278 ± 0.077	–	1.059 ± 0.064	–	0.876 ± 0.053
x1 = 0.6925	1.434 ± 0.087	–	1.172 ± 0.071	–	0.948 ± 0.057	–
x1 = 0.7023	–	1.247 ± 0.075	–	1.042 ± 0.063	–	0.866 ± 0.052
x1 = 0.7872	–	1.221 ± 0.074	–	1.027 ± 0.062	–	0.859 ± 0.052
x1 = 0.8457	1.399 ± 0.085	–	1.145 ± 0.069	–	0.927 ± 0.056	–
x1 = 0.9375	–	1.181 ± 0.071	–	1.004 ± 0.061	–	0.848 ± 0.051
x1 = 0.9696	–	1.173 ± 0.071	–	0.999 ± 0.06	–	0.847 ± 0.051
